Test results reported in patent US8008292B2, “Condensed benzamide compounds and inhibitors of vanilloid receptor subtype 1 (VR1) activity” (Japan Tobacco Inc., priority 2004, dated 2011).

Molecular target: T1, human VR1 (Homo sapiens, UniProt Q8NER1)
T1 construct: expressed in transfected cells
Assay: Inhibition of Ca2+ entry in cells caused by proton, in rat glioma (C6BU1) cells stably expressing human VR1 (Fura 2 fluorescence)
Format: cell-based
Conditions: inhibition of proton-induced Ca2+ entry
Method in brief: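 Fura 2-loaded C6BU1 cells in 20 mM MES buffer pH 6.8 with added Ca2+ were preincubated 10 min with compound (final 1 μM to 0.1 nM, 1% DMSO). Proton stimulation brought pH to 5.5. Fluorescence rise was measured, and IC50 was derived from % inhibition versus DMSO control.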

T1 sequence (Q8NER1 whole entry): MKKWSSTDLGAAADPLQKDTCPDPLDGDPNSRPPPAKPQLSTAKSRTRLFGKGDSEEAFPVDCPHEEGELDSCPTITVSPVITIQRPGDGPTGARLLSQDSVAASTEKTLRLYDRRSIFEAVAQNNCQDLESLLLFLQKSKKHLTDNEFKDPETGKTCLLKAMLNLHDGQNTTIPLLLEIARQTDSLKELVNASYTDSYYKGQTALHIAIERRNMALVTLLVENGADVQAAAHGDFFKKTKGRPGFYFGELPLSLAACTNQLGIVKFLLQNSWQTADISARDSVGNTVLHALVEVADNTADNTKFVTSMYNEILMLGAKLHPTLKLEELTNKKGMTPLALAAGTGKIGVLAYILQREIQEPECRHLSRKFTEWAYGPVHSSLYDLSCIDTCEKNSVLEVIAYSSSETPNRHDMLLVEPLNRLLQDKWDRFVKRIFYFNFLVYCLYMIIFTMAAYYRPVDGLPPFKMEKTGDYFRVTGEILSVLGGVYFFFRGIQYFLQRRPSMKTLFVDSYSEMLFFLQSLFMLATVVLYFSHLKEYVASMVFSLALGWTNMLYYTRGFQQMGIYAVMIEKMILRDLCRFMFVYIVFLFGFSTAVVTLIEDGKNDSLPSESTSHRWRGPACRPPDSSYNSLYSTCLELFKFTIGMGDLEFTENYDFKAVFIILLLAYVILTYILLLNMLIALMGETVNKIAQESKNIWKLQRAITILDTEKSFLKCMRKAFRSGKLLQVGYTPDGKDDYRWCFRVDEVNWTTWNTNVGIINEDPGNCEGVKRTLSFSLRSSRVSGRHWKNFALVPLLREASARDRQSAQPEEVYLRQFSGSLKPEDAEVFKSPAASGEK

Row | Compound | IC50 [nM]
1 | O=C(Nc1ccc(Br)c(Cl)c1)c1cccc2c1OCCN2c1ncc(CO)cc1Cl [Example 2-17] | < 100
2 | CC(C)Oc1ccc(NC(=O)c2cccc3c2OCCN3c2ncc(CO)cc2Cl)cc1C(F)(F)F [Example 2-19] | < 100
3 | O=C(Nc1cnc(Cl)c(Cl)c1)c1cccc2c1OCCN2c1ncc(CO)cc1Cl [Example 2-20] | < 100
4 | O=C(Nc1cc(Cl)c(Cl)c(Cl)c1)c1cccc2c1OCCN2c1ncc(CO)cc1Cl [Example 2-21] | < 100
5 | O=C(Nc1nc2ccc(F)cc2s1)c1cccc2c1OCCN2c1ncc(CO)cc1Cl [Example 2-22] | < 100
6 | O=C(Nc1ccc(Br)c(C(F)(F)F)c1)c1cccc2c1OCCN2c1ncc(CO)cc1Cl [Example 2-23] | < 100
7 | O=C(Nc1cc(F)c(F)c(F)c1)c1cccc2c1OCCN2c1ncc(CO)cc1Cl [Example 2-25] | < 100
8 | O=C(Nc1ccc(F)c([N+](=O)[O-])c1)c1cccc2c1OCCN2c1ncc(CO)cc1Cl [Example 2-26] | 100 to 1000
9 | CC(C)(C)c1ccc(NC(=O)c2cccc3c2OCCN3c2ccc(CO)cn2)cc1 [Example 2-28] | < 100
10 | O=C(Nc1cc(C(F)(F)F)cc(C(F)(F)F)c1)c1cccc2c1OCCN2c1ncc(CO)cc1Cl [Example 2-29] | < 100
11 | O=C(Nc1ccc(OCC(F)(F)F)cc1)c1cccc2c1OCCN2c1ncc(CO)cc1Cl [Example 2-30] | < 100
12 | O=C(Nc1ccc(OCC(F)(F)F)c(Cl)c1)c1cccc2c1OCCN2c1ncc(CO)cc1Cl [Example 2-31] | < 100
13 | O=C(Nc1ccc(SC(F)(F)F)cc1)c1cccc2c1OCCN2c1ncc(CO)cc1Cl [Example 2-32] | < 100
14 | CC(C)(C)C1CCC(NC(=O)c2cccc3c2OCCN3c2ncc(CO)cc2Cl)CC1 (stereo not drawn) [Example 2-33] | < 100
15 | CC(C)Oc1ccc(NC(=O)c2cccc3c2OCCN3c2ncc(CO)cc2Cl)cc1F [Example 2-34] | < 100
16 | O=C(Nc1ccc(N2CCCCC2)c(F)c1)c1cccc2c1OCCN2c1ncc(CO)cc1Cl [Example 2-35] | < 100
17 | CC(C)(C)c1ccc(NC(=O)c2cccc3c2OCCN3c2ncc(CO)cc2Cl)cc1 [Example 2-36] | < 100
18 | O=C(Nc1ccc(C(O)(C(F)(F)F)C(F)(F)F)cc1)c1cccc2c1OCCN2c1ncc(CO)cc1Cl [Example 2-37] | < 100
19 | O=C(Nc1ccc2c(c1)OC(F)(F)C(F)(F)O2)c1cccc2c1OCCN2c1ncc(CO)cc1Cl [Example 2-38] | < 100
20 | CC(C)COc1ccc(NC(=O)c2cccc3c2OCCN3c2ncc(CO)cc2Cl)cc1 [Example 2-39] | < 100
21 | O=C(Nc1ccc(Cl)c(Cl)c1)c1cccc2c1OCCN2c1ncc(CO)cc1Cl [Example 2-40] | < 100
22 | O=C(Nc1ccc(Br)c(F)c1)c1cccc2c1OCCN2c1ncc(CO)cc1Cl [Example 2-41] | < 100
23 | O=C(Nc1ccc(Br)cc1)c1cccc2c1OCCN2c1ncc(CO)cc1Cl [Example 2-42] | < 100
24 | O=C(Nc1cc(Cl)cc(Cl)c1)c1cccc2c1OCCN2c1ncc(CO)cc1Cl [Example 2-43] | < 100
25 | O=C(Nc1ccc(OC(F)F)cc1)c1cccc2c1OCCN2c1ncc(CO)cc1Cl [Example 2-44] | < 100
26 | O=C(Nc1ccc(Cl)cc1)c1cccc2c1OCCN2c1ncc(CO)cc1Cl [Example 2-45] | < 100
27 | CC(C)c1ccc(NC(=O)c2cccc3c2OCCN3c2ncc(CO)cc2Cl)cc1 [Example 2-46] | < 100
28 | O=C(Nc1cccc(OC(F)(F)F)c1)c1cccc2c1OCCN2c1ncc(CO)cc1Cl [Example 2-47] | < 100
29 | CC(O)c1cnc(N2CCOc3c(C(=O)Nc4ccc(OC(F)(F)F)cc4)cccc32)c(Cl)c1 (stereo not drawn) [Example 2-48] | < 100

More lines, now with the values ahead:

Row | IC50 [nM] | Compound
30 | 100 to 1000 | O=C(Nc1ccc(OC(F)(F)F)cc1)c1cccc2c1OC[C@@H](CO)N2c1ncccc1Cl [Example 4-01, (R)-4-(3-chloropyridin-2-yl)-3-hydroxylmethyl-N-(4-trifluoromethoxyphenyl)-3,4-dihydro-2H-benzo[1,4]oxazine-8-carboxamide]
31 | < 100 | O=C(Nc1ccc(OC(F)(F)F)cc1)c1cccc2c1OC[C@H](CO)N2c1ncccc1Cl [Example 4-03, (S)-4-(3-chloropyridin-2-yl)-3-hydroxylmethyl-N-(4-trifluoromethoxyphenyl)-3,4-dihydro-2H-benzo[1,4]oxazine-8-carboxamide]
32 | < 100 | O=C(Nc1ccc(C(F)(F)F)cc1)c1cccc2c1OC[C@H](CO)N2c1ncccc1Cl [Example 4-04, (S)-4-(3-chloropyridin-2-yl)-3-hydroxylmethyl-N-(4-trifluoromethylphenyl)-3,4-dihydro-2H-benzo[1,4]oxazine-8-carboxamide]
33 | < 100 | O=C(Nc1ccc(OC(F)(F)F)cc1)c1cccc2c1OC[C@H](CO)N2c1ccc(Cl)cn1 [Example 4-05, (S)-4-(5-chloropyridin-2-yl)-3-hydroxylmethyl-N-(4-trifluoromethoxyphenyl)-3,4-dihydro-2H-benzo[1,4]oxazine-8-carboxamide]
34 | < 100 | O=C(Nc1ccc(C(F)(F)F)cc1)c1cccc2c1OC[C@H](CO)N2c1ccc(Cl)cn1 [Example 4-06, (S)-4-(5-chloropyridin-2-yl)-3-hydroxylmethyl-N-(4-trifluoromethylphenyl)-3,4-dihydro-2H-benzo[1,4]oxazine-8-carboxamide]
35 | < 100 | Cc1ccc(N2c3cccc(C(=O)Nc4ccc(OC(F)(F)F)cc4)c3OC[C@@H]2CO)nc1 [Example 4-07, (S)-4-(5-picoline-2-yl)-3-hydroxylmethyl-N-(4-trifluoromethoxyphenyl)-3,4-dihydro-2H-benzo[1,4]oxazine-8-carboxamide]
36 | < 100 | Cc1ccc(N2c3cccc(C(=O)Nc4ccc(C(F)(F)F)cc4)c3OC[C@@H]2CO)nc1 [Example 4-08, (S)-4-(5-picoline-2-yl)-3-hydroxylmethyl-N-(4-trifluoromethylphenyl)-3,4-dihydro-2H-benzo[1,4]oxazine-8-carboxamide]
37 | < 100 | CC(C)Oc1ccc(NC(=O)c2cccc3c2OC[C@H](CO)N3c2ncccc2Cl)cc1F [Example 4-09]
38 | < 100 | O=C(Nc1ccc(N2CCCCC2)c(F)c1)c1cccc2c1OC[C@H](CO)N2c1ncccc1Cl [Example 4-10]
39 | < 100 | O=C(Nc1ccc(OC(F)(F)F)c(Cl)c1)c1cccc2c1OC[C@H](CO)N2c1ncccc1Cl [Example 4-11]
40 | < 100 | CN(C)c1ccc(NC(=O)c2cccc3c2OC[C@H](CO)N3c2ncccc2Cl)cc1F [Example 4-12]
41 | < 100 | Cc1ccc(NC(=O)c2cccc3c2OC[C@H](CO)N3c2ncccc2Cl)cc1F [Example 4-13]
42 | < 100 | CC(C)(C)[C@H]1CC[C@H](NC(=O)c2cccc3c2OC[C@H](CO)N3c2ncccc2Cl)CC1 [Example 4-14]
43 | < 100 | CC(C)(C)COc1ccc(NC(=O)c2cccc3c2OC[C@H](CO)N3c2ncccc2Cl)cc1 [Example 4-15]
44 | < 100 | O=C(Nc1ccc(Cl)cc1)c1cccc2c1OC[C@H](CO)N2c1ncccc1Cl [Example 4-16]
45 | < 100 | CC(C)c1ccc(NC(=O)c2cccc3c2OC[C@H](CO)N3c2ncccc2Cl)cc1 [Example 4-17]
46 | < 100 | O=C(Nc1ccc(F)c(C(F)(F)F)c1)c1cccc2c1OC[C@H](CO)N2c1ncccc1Cl [Example 4-18]
47 | < 100 | O=C(Nc1ccc(Br)c(Cl)c1)c1cccc2c1OC[C@H](CO)N2c1ncccc1Cl [Example 4-19]
48 | < 100 | CN(C)c1ccc(NC(=O)c2cccc3c2OC[C@H](CO)N3c2ncccc2Cl)cc1C(F)(F)F [Example 4-20]

Row | IC50 [nM] | Compound
49 | < 100 | CC(C)Oc1ccc(NC(=O)c2cccc3c2OC[C@H](CO)N3c2ncccc2Cl)cc1C(F)(F)F [Example 4-21]
50 | < 100 | O=C(Nc1ccc(N2CCCCC2)c(C(F)(F)F)c1)c1cccc2c1OC[C@H](CO)N2c1ncccc1Cl [Example 4-22]
51 | < 100 | CCOc1ccc(NC(=O)c2cccc3c2OC[C@H](CO)N3c2ncccc2Cl)cc1F [Example 4-23]
52 | < 100 | COc1ccc(NC(=O)c2cccc3c2OC[C@H](CO)N3c2ncccc2Cl)cc1C(F)(F)F [Example 4-24]
53 | < 100 | COc1cnc(N2c3cccc(C(=O)Nc4ccc(C(F)(F)F)cc4)c3OC[C@@H]2CO)c(Cl)c1 [Example 4-25]
54 | < 100 | COc1cnc(N2c3cccc(C(=O)Nc4ccc(OC(F)(F)F)cc4)c3OC[C@@H]2CO)c(Cl)c1 [Example 4-26]
55 | < 100 | Cc1ccc(N2c3cccc(C(=O)Nc4ccc(C(F)(F)F)nc4)c3OC[C@@H]2CO)nc1 [Example 4-27]
56 | < 100 | COc1ccc(NC(=O)c2cccc3c2OC[C@H](CO)N3c2ccc(C)cn2)cc1C(F)(F)F [Example 4-28]
57 | < 100 | Cc1ccc(N2c3cccc(C(=O)Nc4ccc(N5CCOCC5)c(C(F)(F)F)c4)c3OC[C@@H]2CO)nc1 [Example 4-29]
58 | < 100 | Cc1ccc(N2c3cccc(C(=O)Nc4ccc(C(F)(F)F)c(F)c4)c3OC[C@@H]2CO)nc1 [Example 4-30]
59 | < 100 | Cc1ccc(N2c3cccc(C(=O)Nc4ccc(OC(F)(F)F)c(Cl)c4)c3OC[C@@H]2CO)nc1 [Example 4-31]
60 | < 100 | Cc1ccc(N2c3cccc(C(=O)Nc4ccc(Cl)c(Cl)c4)c3OC[C@@H]2CO)nc1 [Example 4-32]
61 | < 100 | CC(C)COc1ccc(NC(=O)c2cccc3c2OC[C@H](CO)N3c2ncccc2Cl)cc1C(F)(F)F [Example 4-33]
62 | < 100 | O=C(Nc1ccc(Cl)c(Cl)c1)c1cccc2c1OC[C@H](CO)N2c1ncccc1Cl [Example 4-34]
63 | < 100 | O=C(Nc1ccc(Cl)c(C(F)(F)F)c1)c1cccc2c1OC[C@H](CO)N2c1ncccc1Cl [Example 4-35]
64 | < 100 | O=C(Nc1ccc(Br)c(F)c1)c1cccc2c1OC[C@H](CO)N2c1ncccc1Cl [Example 4-36]
65 | < 100 | Cc1ccc(N2c3cccc(C(=O)Nc4ccc(Cl)c(C(F)(F)F)c4)c3OC[C@@H]2CO)nc1 [Example 4-37]
66 | < 100 | Cc1ccc(N2c3cccc(C(=O)Nc4ccc(OC(C)C)c(C(F)(F)F)c4)c3OC[C@@H]2CO)nc1 [Example 4-38]
